Assay results: US7396837B2, “Antitumoral analogs of lamellarins” (Pharma Mar, S.A.U., priority 2002, dated 2008)
Like-named read-outs stand apart in the source and are kept apart here.

Assays:
Format in all cases: cell-based
K-562 = experiment: SRB colorimetric cell growth inhibition assay, K-562; conditions: Homo sapiens, K562, K-562; for GI50: GI=growth inhibition, read-out: GI50 K-562; for CC50: read-out: LC50 K-562; for IC (TGI): read-out: TGI K-562
Outline: (§1)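 Growth inhibition (GI), cytostatic total growth inhibition (TGI) and cytotoxic cell-kill (LC) parameters were calculated from SRB-stained cultures held under constant compound exposure, triplicates averaged.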

A-549 = experiment: SRB colorimetric cell growth inhibition assay, A-549; conditions: Homo sapiens, A549, A-549; for GI50: GI=growth inhibition, read-out: GI50 A-549; for CC50: read-out: LC50 A-549; for IC (TGI): read-out: TGI A-549
Outline: as §1

HeLa-APL = experiment: SRB colorimetric cell growth inhibition assay, HeLa-APL (aplidine resistant); conditions: Homo sapiens, HELA-APL; for GI50: GI=growth inhibition, read-out: GI50 HELA-APL; for CC50: read-out: LC50 HELA-APL; for IC (TGI): read-out: TGI HELA-APL
Outline: as §1

IGROV = experiment: SRB colorimetric cell growth inhibition assay, IGROV; conditions: Homo sapiens, IGROV; for GI50: GI=growth inhibition, read-out: GI50 IGROV; for CC50: read-out: LC50 IGROV; for IC (TGI): read-out: TGI IGROV
Outline: as §1

SK-MEL-28 = experiment: SRB colorimetric cell growth inhibition assay, SK-MEL-28; conditions: Homo sapiens, SK-MEL-28, MEL-28; for GI50: GI=growth inhibition, read-out: GI50 MEL-28; for CC50: read-out: LC50 MEL-28; for IC (TGI): read-out: TGI MEL-28
Outline: as §1

LNCaP = experiment: SRB colorimetric cell growth inhibition assay, LNCaP; conditions: Homo sapiens, LNCaP, LN-caP; for GI50: GI=growth inhibition, read-out: GI50 LN-caP; for CC50: read-out: LC50 LN-caP; for IC (TGI): read-out: TGI LN-caP
Outline: as §1

PANC-1 = experiment: SRB colorimetric cell growth inhibition assay, PANC-1; conditions: Homo sapiens, PANC-1, PANC-1; for GI50: GI=growth inhibition, read-out: GI50 PANC-1; for CC50: read-out: LC50 PANC-1; for IC (TGI): read-out: TGI PANC-1
Outline: as §1

HeLa = experiment: SRB colorimetric cell growth inhibition assay, HeLa; conditions: Homo sapiens, HeLa; for GI50: GI=growth inhibition, read-out: GI50 HELA; for CC50: read-out: LC50 HELA; for IC (TGI): read-out: TGI HELA
Outline: as §1

LoVo = experiment: SRB colorimetric cell growth inhibition assay, LoVo; conditions: Homo sapiens, LoVo; for GI50: GI=growth inhibition, read-out: GI50 LOVO; for CC50: read-out: LC50 LOVO; for IC (TGI): read-out: TGI LOVO
Outline: as §1

IGROV-ET = experiment: SRB colorimetric cell growth inhibition assay, IGROV-ET (ET-743 resistant); conditions: Homo sapiens, IGROV-ET; for GI50: GI=growth inhibition, read-out: GI50 IGROV-ET; for CC50: read-out: LC50 IGROV-ET; for IC (TGI): read-out: TGI IGROV-ET
Outline: as §1

HT-29 = experiment: SRB colorimetric cell growth inhibition assay, HT-29; conditions: Homo sapiens, HT-29, HT-29; for GI50: GI=growth inhibition, read-out: GI50 HT-29; for CC50: read-out: LC50 HT-29; for IC (TGI): read-out: TGI HT-29
Outline: as §1

DU-145 = experiment: SRB colorimetric cell growth inhibition assay, DU-145; conditions: Homo sapiens, DU-145, DU-145; for GI50: GI=growth inhibition, read-out: GI50 DU-145; for CC50: read-out: LC50 DU-145; for IC (TGI): read-out: TGI DU-145
Outline: as §1

SK-BR-3 = experiment: SRB colorimetric cell growth inhibition assay, SK-BR-3; conditions: Homo sapiens, SK-BR-3, SK-BR-3; for GI50: GI=growth inhibition, read-out: GI50 SK-BR-3; for CC50: read-out: LC50 SK-BR-3; for IC (TGI): read-out: TGI SK-BR-3
Outline: as §1

LoVo-Dox = experiment: SRB colorimetric cell growth inhibition assay, LoVo-Dox (MDR); conditions: Homo sapiens, LOVO-DOX; for GI50: GI=growth inhibition, read-out: GI50 LOVO-DOX; for CC50: read-out: LC50 LOVO-DOX; for IC (TGI): read-out: TGI LOVO-DOX
Outline: as §1

[1] = cell killing (cytotoxic effect)
[2] = total growth inhibition (cytostatic effect)
[3] = LC=cell killing (cytotoxic effect)
[4] = TGI=total growth inhibition (cytostatic effect)

Q: What does the source list for COc1cc(-c2c3c4cc(OC)c(OC(=O)C[C@H](N)C(C)C)cc4oc(=O)c3n3ccc4cc(OC(=O)C[C@H](N)C(C)C)c(OC)cc4c23)ccc1OC(=O)C[C@H](N)C(C)C [Compound 206]?
A: GI50 (K-562): 0.0311 µM; CC50 (K-562; [1]): 4.23 µM; IC (TGI) (K-562; [2]): 1.11 µM; GI50 (A-549): 0.0558 µM; CC50 (A-549; [1]): 2.77 µM; IC (TGI) (A-549; [2]): 0.41 µM; GI50 (HeLa-APL): 0.0834 µM; CC50 (HeLa-APL; [1]): 2.82 µM; IC (TGI) (HeLa-APL; [2]): 0.523 µM; GI50 (IGROV): 0.0527 µM; CC50 (IGROV; [1]): 0.589 µM; IC (TGI) (IGROV; [2]): 0.194 µM; GI50 (SK-MEL-28): 0.044 µM; CC50 (SK-MEL-28; [1]): 1.04 µM; IC (TGI) (SK-MEL-28; [2]): 0.169 µM; GI50 (LNCaP): 0.0752 µM; CC50 (LNCaP; [1]): 3.33 µM; IC (TGI) (LNCaP; [2]): 0.475 µM; GI50 (PANC-1): 0.137 µM; CC50 (PANC-1; [1]): 6.25 µM; IC (TGI) (PANC-1; [2]): 1.27 µM; GI50 (HeLa): 0.0505 µM; CC50 (HeLa; [1]): 1.93 µM; IC (TGI) (HeLa; [2]): 0.33 µM; GI50 (LoVo): 0.167 µM; CC50 (LoVo; [1]): 0.66 µM; IC (TGI) (LoVo; [2]): 0.331 µM; GI50 (IGROV-ET): 0.0297 µM; CC50 (IGROV-ET; [1]): 0.589 µM; IC (TGI) (IGROV-ET; [2]): 0.19 µM; GI50 (HT-29): 1.32 µM; CC50 (HT-29; [1]): 10.5 µM; IC (TGI) (HT-29; [2]): 10.5 µM; GI50 (DU-145): 0.0218 µM; CC50 (DU-145; [1]): 0.0725 µM; IC (TGI) (DU-145; [2]): 0.0399 µM; GI50 (SK-BR-3): 0.0701 µM; CC50 (SK-BR-3; [1]): 2.89 µM; IC (TGI) (SK-BR-3; [2]): 0.451 µM; GI50 (LoVo-Dox): 0.294 µM; CC50 (LoVo-Dox; [1]): 6.37 µM; IC (TGI) (LoVo-Dox; [2]): 1.01 µM

Q: What does the source list for COc1cc2c(cc1OC)-c1c(-c3ccc(OC(=O)CCCC[C@@H]4SC[C@@H]5NC(=O)N[C@@H]54)c(OC)c3)c3c4cc(OC)c(OC(=O)CCCC[C@@H]5SC[C@@H]6NC(=O)N[C@@H]65)cc4oc(=O)c3n1CC2 [Compound 47]?
A: GI50 (K-562): 0.564 µM; CC50 (K-562; [3]): 10.3 µM; IC (TGI) (K-562; [4]): 3.74 µM; GI50 (A-549): 3.26 µM; CC50 (A-549; [3]): 10.3 µM; IC (TGI) (A-549; [4]): 10.3 µM; GI50 (HeLa-APL): 5.75 µM; CC50 (HeLa-APL; [3]): 10.3 µM; IC (TGI) (HeLa-APL; [4]): 10.3 µM; GI50 (IGROV): 0.764 µM; CC50 (IGROV; [3]): 10.3 µM; IC (TGI) (IGROV; [4]): 10.3 µM; GI50 (SK-MEL-28): 2.07 µM; CC50 (SK-MEL-28; [3]): 10.3 µM; IC (TGI) (SK-MEL-28; [4]): 10.3 µM; GI50 (LNCaP): 0.0884 µM; CC50 (LNCaP; [3]): 5.87 µM; IC (TGI) (LNCaP; [4]): 1.59 µM; GI50 (PANC-1): 3.86 µM; CC50 (PANC-1; [3]): 10.3 µM; IC (TGI) (PANC-1; [4]): 10.3 µM; GI50 (HeLa): 0.537 µM; CC50 (HeLa; [3]): 10.3 µM; IC (TGI) (HeLa; [4]): 4.79 µM; GI50 (LoVo): 3.97 µM; CC50 (LoVo; [3]): 10.3 µM; IC (TGI) (LoVo; [4]): 10.3 µM; GI50 (IGROV-ET): 2.07 µM; CC50 (IGROV-ET; [3]): 10.3 µM; IC (TGI) (IGROV-ET; [4]): 10.3 µM; GI50 (HT-29): 1.25 µM; CC50 (HT-29; [3]): 10.3 µM; IC (TGI) (HT-29; [4]): 10.3 µM; GI50 (DU-145): 1.08 µM; CC50 (DU-145; [3]): 10.3 µM; IC (TGI) (DU-145; [4]): 4.61 µM; GI50 (SK-BR-3): 2.29 µM; CC50 (SK-BR-3; [3]): 10.3 µM; IC (TGI) (SK-BR-3; [4]): 6.01 µM; GI50 (LoVo-Dox): 8.09 µM; CC50 (LoVo-Dox; [3]): 10.3 µM; IC (TGI) (LoVo-Dox; [4]): 10.3 µM
